The IC50 is the concentration needed to halve the response being measured.

Experiment [1] deals with Diamine oxidase AOC1 (Rattus norvegicus). The experiment in a line: Inhibition of rat liver DAO using putrescine as substrate after 1 hr by fluorometric assay.
Experiment [2] addresses Diamine oxidase AOC1 (Homo sapiens). The experiment in a line: Inhibition of human DAO expressed in CHO cells using putrescine as substrate after 1 hr by fluorometric assay.

As for `CC(=O)Nc1nc(CCc2ccc(N=C(N)N)cc2)cs1`, the IC50 in experiment [1] was 75 µM; in experiment [2], > 100 µM.

The values are drawn from BindingDB's records for doi:10.1016/j.bmc.2012.12.025 (Astellas Pharma, 2013).
